Experimental data from patent US10407400B2, “Compounds, compositions, and methods for modulating sweet taste” (Chromocell Corporation, priority 2015, dated 2019).

Test system: perception of sweet taste of High Fructose Corn Syrup (HFCS)
Assay: Two-alternative forced choice (2AFC) sip and spit sensory test of perceived sweetness in Lemon Lime beverage
Type: in vivo, humans
Settings: Lemon Lime beverage pH 3.1
Protocol: Effect of Test Compounds on the Perception of Sweet Taste of High Fructose Corn Syrup (HFCS) Two-alternative Forced Choice Method (2AFC). The effect of the test compounds and combinations of test compounds on the perception of the sweet taste of a flavored beverage (referred to as Lemon Lime henceforth) of sweetener in humans was evaluated using a two-alternative forced choice “sip and spit” method (2AFC). The Lemon Lime solutions were prepared by adding sucrose equivalent (SE) quantities of high fructose corn syrup (HFCS) (by weight), to water to achieve the desired concentration. The lemon lime pH is 3.1. Compounds were first prepared as a 500-fold concentrated stock solution in 100% ethanol. These concentrated stocks were then added to the aqueous sweetener solutions to result in a final ethanol concentration of 0.2%. […] In this manner, compounds were not assessed simply for an increase in perceived sweetness, but a significant increase in perceived sweetness above the positive control. […] Data were analyzed using binomial probabilities. Approximate levels of sweetness enhancement in column 5 of Table 1 were calculated as follows: Approximate levels of sweetness enhancement=Sweetener concentration of positive control surpassed by the test sample, divided by sweetener concentration for compound-containing sample (e.g. 1.5×=7.5brix HFCS/5brix HFCS).

SMILES: COc1cc(C2CC(=O)Oc3cc(C)cc(O)c32)ccc1O (racemic) [Compound 1, 5-hydroxy-4-(4-hydroxy-3-methoxyphenyl)-7-methylchroman-2-one]
- Fold increase in perceived sweetness (positive control 10brix HFCS surpassed, divided by test sample 7.14brix HFCS, compound concentration 25 ppm (1) or 41.25 ppm (1 & 4)): >1.4X
- Compound concentration with positive 2AFC results (test sample 7.14brix HFCS with compound surpassed positive control 10brix HFCS, taste panelists n≥15, 0.2% ethanol): 25 ppm
